Results from patent EP4603105A1, “PHARMACEUTICAL COMPOSITION CONTAINING CYCLIC COMPOUND HAVING SELECTIVE KRAS INHIBITORY EFFECT AGAINST HRAS AND NRAS” (CHUGAI SEIYAKU KABUSHIKI KAISHA, priority 2022, dated 2024).
*1 amine or outer side, *2 acyl side, *3 side chain or, on linkers, in order; H or OH if unused. Where a SMILES comes first, the peptide text is derived from it. Bridges are numbered along the chain shown (N, C = ends). [ ]: non-standard residue; d: D form. The star is where a group is joined. hPhe(3-Cl-4-CF3) = N[C@@H](CCc1ccc(C(F)(F)F)c(Cl)c1)C(=O)O; X42 = Cc1ccc(C[C@@H](C(=O)[*:2])N(CCC(F)(F)F)[*:1])cc1; NPrPhe(4-CF3) = CCCN[C@@H](Cc1ccc(C(F)(F)F)cc1)C(=O)O; NMeGly(cPent) = CN[C@H](C(=O)O)C1CCCC1; Pro(4,4-F2) = O=C(O)[C@@H]1CC(F)(F)CN1; NMeD = CN[C@@H](CC(=O)O)C(=O)O; NMeL = CN[C@@H](CC(C)C)C(=O)O; NMeAbu = CC[C@H](NC)C(=O)O; Morpholide = C1CN(*)CCO1; NMeA = CN[C@@H](C)C(=O)O; Ac5c = NC1(C(=O)O)CCCC1; Aze = O=C(O)[C@@H]1CCN1; Ac4c = NC1(C(=O)O)CCC1; NEtG = CCNCC(=O)O; Sar = CNCC(=O)O

Key:
HRAS wild-type protein = HRAS wild-type protein (Homo sapiens, UniProt P01112); test: Binding to HRAS by surface plasmon resonance (SPR), KD and KD ratio to KRAS
Chain of HRAS wild-type protein (P01112 whole entry): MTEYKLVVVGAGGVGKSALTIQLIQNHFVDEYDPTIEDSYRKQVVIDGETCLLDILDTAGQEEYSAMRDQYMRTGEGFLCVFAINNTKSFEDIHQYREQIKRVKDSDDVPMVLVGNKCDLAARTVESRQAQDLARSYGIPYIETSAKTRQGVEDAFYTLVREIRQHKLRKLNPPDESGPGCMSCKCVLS
How it was run: (§1)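 Captured GDP-RAS (~100–300 RU) was exposed to increasing compound concentrations, 75 s per step, in running buffer with 10 µM GDP, 10 mM MgCl2 and 4% DMSO at pH 7.4.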

[1] = target: GDP-bound NRAS wild-type protein (Homo sapiens, UniProt P01111); test: Binding to NRAS by surface plasmon resonance (SPR), KD and KD ratio to KRAS
Chain of GDP-bound NRAS wild-type protein (P01111 whole entry): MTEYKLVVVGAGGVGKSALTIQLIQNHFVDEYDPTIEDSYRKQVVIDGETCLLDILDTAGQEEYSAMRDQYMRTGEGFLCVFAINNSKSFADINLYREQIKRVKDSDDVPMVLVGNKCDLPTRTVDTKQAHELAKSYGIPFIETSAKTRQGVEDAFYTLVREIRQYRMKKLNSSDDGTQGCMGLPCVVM
How it was run: as §1

[2] = system: human lung cancer strain NCI-H441; type: cell-based
How it was run: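 Step one: dispense the test compound in serial DMSO dilutions. Step three: add the reagent and measure […].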

[3] = ratio of KD for HRAS wild-type protein to KD for KRAS
[4] = ratio of KD for GDP-bound NRAS wild-type protein to KD for KRAS
[5] = ratio of KD value for HRAS wild-type protein to KD value for KRAS (SPR)
[6] = ratio of KD value for GDP-bound NRAS wild-type protein to KD value for KRAS (SPR)
[7] = ratio of the KD value with respect to HRAS wild-type protein to the KD value with respect to KRAS
[8] = ratio of the KD value with respect to GDP-bound NRAS wild-type protein to the KD value with respect to KRAS

| IC50 [2] [µM] | Compound | HRAS /KRAS (HRAS wild-type protein; [3]) | NRAS /KRAS [1, 4] | HRAS /KRAS (HRAS wild-type protein; [5]) | NRAS /KRAS [1, 6] | HRAS /KRAS (HRAS wild-type protein; [7]) | NRAS /KRAS [1, 8] |
| --- | --- | --- | --- | --- | --- | --- | --- |
| 0.163 | CCCN1C(=O)CN(C)C(=O)CNC(=O)[C@H]([C@@H](C)CC)NC(=O)[C@H](CC(C)C)N(C)C(=O)C[C@@H](C(=O)N2CCOCC2)NC(=O)[C@H](C2CCCC2)N(C)C(=O)C2(CCCC2)NC(=O)[C@@H]2CC(F)(F)CN2C(=O)[C@H](CCc2ccc(C(F)(F)F)c(Cl)c2)NC(=O)CN(C)C(=O)[C@@H]1Cc1ccc(C(F)(F)F)cc1 [PP0327] ([NMeL]IG[Sar][NPrPhe(4-CF3)][Sar][hPhe(3-Cl-4-CF3)][Pro(4,4-F2)][Ac5c][NMeGly(cPent)]D-Morpholide; lactam N-11) | B (a compound having 3 or more and less than 10 is denoted as B) | B (a compound having 3 or more and less than 10 is denoted as B) |  |  |  |  |
| 0.0137 | CC[C@H](C)[C@@H]1NC(=O)[C@H](CC2CC2)N(C)C(=O)C[C@@H](C(=O)N(C)C)N(C)C(=O)[C@H](C2CCCC2)N(C)C(=O)C2(CCCC2)NC(=O)[C@@H]2C[C@H](C)CN2C(=O)[C@H](CCc2cc(F)c(C(F)(F)F)c(F)c2)NC(=O)CN(C)C(=O)[C@H](Cc2ccc(C(F)(F)F)cc2)N2CC/C=C\C[C@@H](C2=O)N(C)C(=O)CN(C)C1=O [PP1511] |  |  | A (a compound having 10 or more and less than 20 is denoted as A) | AA (a compound having 20 or more is denoted as AA) |  |  |
| 0.142 | CCCN1C(=O)CN(C)C(=O)[C@@H]2CCN2C(=O)[C@H]([C@@H](C)CC)NC(=O)[C@H](CC(C)C)N(C)C(=O)C[C@@H](C(=O)N(C)C)NC(=O)[C@H](C2CCCC2)N(C)C(=O)C2(CCC2)NC(=O)[C@@H]2CCCN2C(=O)[C@H](CCc2ccc(C(F)(F)F)c(Cl)c2)NC(=O)CN(C)C(=O)[C@@H]1Cc1ccc(C(F)(F)F)cc1 [PP0374] ([NMeL]I[Aze][Sar][NPrPhe(4-CF3)][Sar][hPhe(3-Cl-4-CF3)]P[Ac4c][NMeGly(cPent)]D-NMe2; lactam N-11) | B (a compound having 3 or more and less than 10 is denoted as B) | B (a compound having 3 or more and less than 10 is denoted as B) |  |  |  |  |
| 0.0082 | CC[C@H](C)[C@@H]1NC(=O)[C@H](CC(C)C)N(C)C(=O)C[C@@H](C(=O)N2CCOCC2)N(C)C(=O)[C@H](C2CCCC2)N(C)C(=O)C2(CCCC2)NC(=O)[C@@H]2CCCN2C(=O)[C@H](CCc2ccc(C(F)(F)F)c(Cl)c2)NC(=O)CN(C)C(=O)[C@H](Cc2ccc(C)cc2)N(CCC(F)(F)F)C(=O)CN(C)C(=O)CN(C)C1=O [PP0103] ([NMeL]I[Sar][Sar][X42][Sar][hPhe(3-Cl-4-CF3)]P[Ac5c][NMeGly(cPent)][NMeD]-Morpholide; lactam N-11) | C (A compound having a KD ratio of 0.1 or more and less than 3 is denoted as C) | B (a compound having 3 or more and less than 10 is denoted as B) |  |  |  |  |
| 0.0706 | CCO[C@@H]1C[C@H]2C(=O)NC3(CCC3)C(=O)N(C)[C@@H](C3CCCC3)C(=O)N(C)[C@H](C(=O)N(C)C)CC(=O)N(C)[C@@H](CC3CCCC3)C(=O)N[C@@H]([C@@H](C)CC)C(=O)N(C)CC(=O)N(C)[C@H]3C/C=C\CCN(C3=O)[C@@H](Cc3ccc(C)cc3)C(=O)N(C)CC(=O)N[C@@H](CCc3cc(C)c(C(F)F)c(Cl)c3)C(=O)N2C1 [PP2677] | A (a compound having 10 or more and less than 20 is denoted as A) | A (a compound having 10 or more and less than 20 is denoted as A) |  |  |  |  |
| 0.0019 | CCCN1C(=O)[C@@H]2CCN2C(=O)[C@H](C)N(C)C(=O)[C@H]([C@@H](C)CC)NC(=O)[C@H](CC)N(C)C(=O)C[C@@H](C(=O)N2CCOCC2)N(C)C(=O)[C@H](C2CCCC2)N(C)C(=O)C2(CCCC2)NC(=O)[C@@H]2CCCN2C(=O)[C@H](CCc2ccc(C(F)(F)F)c(Cl)c2)NC(=O)CN(C)C(=O)[C@@H]1Cc1ccc(C(F)(F)F)cc1 [PP0194] ([NMeAbu]I[NMeA][Aze][NPrPhe(4-CF3)][Sar][hPhe(3-Cl-4-CF3)]P[Ac5c][NMeGly(cPent)][NMeD]-Morpholide; lactam N-11) | B (a compound having 3 or more and less than 10 is denoted as B) | C (A compound having a KD ratio of 0.1 or more and less than 3 is denoted as C) |  |  |  |  |
| 0.0078 | CCCN1C(=O)CN(C)C(=O)CN(CC)C(=O)[C@H]([C@@H](C)CC)NC(=O)[C@H](CC(C)C)N(C)C(=O)C[C@@H](C(=O)N2CCOCC2)N(C)C(=O)[C@H](C2CCCC2)N(C)C(=O)C2(CCC2)NC(=O)[C@@H]2CC(F)(F)CN2C(=O)[C@H](CCc2ccc(C(F)(F)F)c(Cl)c2)NC(=O)CN(C)C(=O)[C@@H]1Cc1ccc(C(F)(F)F)cc1 [PP0400] ([NMeL]I[NEtG][Sar][NPrPhe(4-CF3)][Sar][hPhe(3-Cl-4-CF3)][Pro(4,4-F2)][Ac4c][NMeGly(cPent)][NMeD]-Morpholide; lactam N-11) |  |  |  |  | B (a compound having 3 or more and less than 10 is denoted as B) | B (a compound having 3 or more and less than 10 is denoted as B) |
| 0.0063 | CC[C@H](C)[C@@H]1NC(=O)[C@H](CC2CC2)N(C)C(=O)C[C@@H](C(=O)N(C)C)N(C)C(=O)[C@H](C2CCCC2)N(C)C(=O)C2(CC(C)(C)C2)NC(=O)[C@@H]2C[C@H](C)CN2C(=O)[C@H](CCc2ccc(C(F)(F)F)c(OC)c2)NC(=O)CN(C)C(=O)[C@H](Cc2ccc(C)cc2)N2CC/C=C\C[C@@H](C2=O)N(C)C(=O)CN(C)C1=O [PP1898] |  |  |  |  | B (a compound having 3 or more and less than 10 is denoted as B) | B (a compound having 3 or more and less than 10 is denoted as B) |
| 0.0248 | CC[C@H](C)[C@@H]1NC(=O)[C@H](CC2CCCC2)N(C)C(=O)C[C@@H](C(=O)N(C)C)N(C)C(=O)[C@@H](C2CCCC2)N(C)C(=O)C2(CCC2)NC(=O)[C@@H]2[C@@H](OCC(F)F)CCN2C(=O)[C@@H](CCc2cc(F)c(C(F)(F)F)c(F)c2)NC(=O)CN(C)C(=O)[C@@H](Cc2ccc(C)cc2)N2CC/C=C\C[C@H](C2=O)N(C)C(=O)CN(C)C1=O [PP1536] |  |  | B (a compound having 3 or more and less than 10 is denoted as B) | A (a compound having 10 or more and less than 20 is denoted as A) |  |  |

| Compound | IC50 [2] [µM] | HRAS /KRAS (HRAS wild-type protein; [3]) | NRAS /KRAS [1, 4] | HRAS /KRAS (HRAS wild-type protein; [5]) | NRAS /KRAS [1, 6] | HRAS /KRAS (HRAS wild-type protein; [7]) | NRAS /KRAS [1, 8] |
| --- | --- | --- | --- | --- | --- | --- | --- |
| CCC[C@H]1C(=O)N[C@@H]([C@@H](C)CC)C(=O)N(C)CC(=O)N(C)[C@H]2C/C=C\CCN(C2=O)[C@@H](Cc2ccc(C)cc2)C(=O)N(C)CC(=O)N[C@@H](CCc2cc(F)c(C(F)(F)F)c(F)c2)C(=O)N2C[C@H](OCC)C[C@H]2C(=O)N(C)C2(CCC2)C(=O)N(C)[C@@H](C2CCCC2)C(=O)N(C)[C@H](C(=O)N2CCCCC2)CC(=O)N1C [PP3119] | 0.0035 | A (a compound having 10 or more and less than 20 is denoted as A) | A (a compound having 10 or more and less than 20 is denoted as A) |  |  |  |  |
| CC[C@H](C)[C@@H]1NC(=O)[C@H](CC(C)C)N(C)C(=O)C[C@@H](C(=O)N2CCCCC2)N(C)C(=O)[C@H](C2CCCC2)N(C)C(=O)C2(CCCC2)NC(=O)[C@@H]2CCCN2C(=O)[C@H](CCc2cc(F)c(C(F)(F)F)c(F)c2)NC(=O)CN(C)C(=O)[C@H](Cc2ccc(C(F)(F)F)cc2)N2CCCCC[C@@H](C2=O)N(C)C(=O)CN(C)C1=O [PP0510] | 0.391 |  |  |  |  | B (a compound having 3 or more and less than 10 is denoted as B) | B (a compound having 3 or more and less than 10 is denoted as B) |
